The target in one experiment is Bile salt export pump (Homo sapiens, UniProt O95342). Kind of experiment: Inhibition of human BSEP overexpressed in Sf9 cell membrane vesicles assessed as uptake of [3H]-taurocholate in presence of ATP measured after 15 to 20 mins by membrane vesicle transport assay. Format: ADME, cell-based.
Experiment [1] has as its target ATP-binding cassette sub-family C member 2 (Homo sapiens, UniProt Q92887). Put plainly: Inhibition of human MRP2 overexpressed in Sf9 cell membrane vesicles assessed as uptake of [3H]-estradiol-17beta-D-glucuronide in presence of ATP and GSH measured after 20 mins by membrane vesicle transport assay.
For experiment [2], the target named is ATP-binding cassette sub-family C member 3 (Homo sapiens, UniProt O15438). Put plainly: Inhibition of human MRP3 overexpressed in Sf9 insect cell membrane vesicles assessed as uptake of [3H]-estradiol-17beta-D-glucuronide in presence of ATP and GSH measured after 10 mins by membrane vesicle transport assay. Format: ADME, cell-based.
Experiment [3] concerns the target T1, ATP-binding cassette sub-family C member 4 (Homo sapiens, UniProt O15439).
T1 sequence (O15439 whole entry): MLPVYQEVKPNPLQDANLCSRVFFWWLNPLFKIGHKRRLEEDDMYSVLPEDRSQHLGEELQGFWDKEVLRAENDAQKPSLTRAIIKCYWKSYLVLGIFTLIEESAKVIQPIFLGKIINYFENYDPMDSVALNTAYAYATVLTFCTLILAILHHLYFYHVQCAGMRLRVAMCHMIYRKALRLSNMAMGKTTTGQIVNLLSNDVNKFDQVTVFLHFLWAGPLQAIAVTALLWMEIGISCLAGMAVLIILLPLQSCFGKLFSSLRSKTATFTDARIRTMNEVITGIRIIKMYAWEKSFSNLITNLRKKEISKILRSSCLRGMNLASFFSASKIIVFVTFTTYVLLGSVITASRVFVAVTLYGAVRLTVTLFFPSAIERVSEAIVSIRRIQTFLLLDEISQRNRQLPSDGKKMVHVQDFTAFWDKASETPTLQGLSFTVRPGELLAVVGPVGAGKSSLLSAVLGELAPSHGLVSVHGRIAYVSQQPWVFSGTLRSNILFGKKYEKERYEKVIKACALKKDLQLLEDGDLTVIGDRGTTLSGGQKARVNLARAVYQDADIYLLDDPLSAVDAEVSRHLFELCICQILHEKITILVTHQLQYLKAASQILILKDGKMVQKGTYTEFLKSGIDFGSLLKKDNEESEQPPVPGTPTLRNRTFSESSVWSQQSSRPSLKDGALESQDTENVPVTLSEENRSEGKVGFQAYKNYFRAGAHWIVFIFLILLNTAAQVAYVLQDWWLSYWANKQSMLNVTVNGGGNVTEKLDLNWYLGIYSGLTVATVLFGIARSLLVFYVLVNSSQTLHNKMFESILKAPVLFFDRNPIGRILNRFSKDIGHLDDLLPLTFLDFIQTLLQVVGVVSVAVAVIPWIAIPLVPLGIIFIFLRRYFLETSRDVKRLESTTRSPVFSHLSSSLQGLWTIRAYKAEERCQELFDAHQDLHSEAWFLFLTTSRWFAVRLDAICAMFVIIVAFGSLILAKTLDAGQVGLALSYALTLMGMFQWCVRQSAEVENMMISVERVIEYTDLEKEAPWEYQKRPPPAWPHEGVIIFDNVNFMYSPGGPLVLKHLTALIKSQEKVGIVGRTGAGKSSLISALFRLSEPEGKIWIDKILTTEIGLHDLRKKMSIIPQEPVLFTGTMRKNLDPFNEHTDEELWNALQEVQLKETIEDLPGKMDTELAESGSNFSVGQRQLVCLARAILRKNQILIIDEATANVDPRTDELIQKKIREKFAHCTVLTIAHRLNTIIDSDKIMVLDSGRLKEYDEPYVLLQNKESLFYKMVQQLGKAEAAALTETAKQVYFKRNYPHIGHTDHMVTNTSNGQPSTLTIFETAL
Kind of experiment: Inhibition of human MRP4 overexpressed in Sf9 cell membrane vesicles assessed as uptake of [3H]-estradiol-17beta-D-glucuronide in presence of ATP and GSH measured after 20 mins by membrane vesicle transport assay. The format is ADME, cell-based.

Counter-ions that a name gives are not always drawn.

ATP-binding cassette sub-family C member 2, sequence (Q92887 whole entry): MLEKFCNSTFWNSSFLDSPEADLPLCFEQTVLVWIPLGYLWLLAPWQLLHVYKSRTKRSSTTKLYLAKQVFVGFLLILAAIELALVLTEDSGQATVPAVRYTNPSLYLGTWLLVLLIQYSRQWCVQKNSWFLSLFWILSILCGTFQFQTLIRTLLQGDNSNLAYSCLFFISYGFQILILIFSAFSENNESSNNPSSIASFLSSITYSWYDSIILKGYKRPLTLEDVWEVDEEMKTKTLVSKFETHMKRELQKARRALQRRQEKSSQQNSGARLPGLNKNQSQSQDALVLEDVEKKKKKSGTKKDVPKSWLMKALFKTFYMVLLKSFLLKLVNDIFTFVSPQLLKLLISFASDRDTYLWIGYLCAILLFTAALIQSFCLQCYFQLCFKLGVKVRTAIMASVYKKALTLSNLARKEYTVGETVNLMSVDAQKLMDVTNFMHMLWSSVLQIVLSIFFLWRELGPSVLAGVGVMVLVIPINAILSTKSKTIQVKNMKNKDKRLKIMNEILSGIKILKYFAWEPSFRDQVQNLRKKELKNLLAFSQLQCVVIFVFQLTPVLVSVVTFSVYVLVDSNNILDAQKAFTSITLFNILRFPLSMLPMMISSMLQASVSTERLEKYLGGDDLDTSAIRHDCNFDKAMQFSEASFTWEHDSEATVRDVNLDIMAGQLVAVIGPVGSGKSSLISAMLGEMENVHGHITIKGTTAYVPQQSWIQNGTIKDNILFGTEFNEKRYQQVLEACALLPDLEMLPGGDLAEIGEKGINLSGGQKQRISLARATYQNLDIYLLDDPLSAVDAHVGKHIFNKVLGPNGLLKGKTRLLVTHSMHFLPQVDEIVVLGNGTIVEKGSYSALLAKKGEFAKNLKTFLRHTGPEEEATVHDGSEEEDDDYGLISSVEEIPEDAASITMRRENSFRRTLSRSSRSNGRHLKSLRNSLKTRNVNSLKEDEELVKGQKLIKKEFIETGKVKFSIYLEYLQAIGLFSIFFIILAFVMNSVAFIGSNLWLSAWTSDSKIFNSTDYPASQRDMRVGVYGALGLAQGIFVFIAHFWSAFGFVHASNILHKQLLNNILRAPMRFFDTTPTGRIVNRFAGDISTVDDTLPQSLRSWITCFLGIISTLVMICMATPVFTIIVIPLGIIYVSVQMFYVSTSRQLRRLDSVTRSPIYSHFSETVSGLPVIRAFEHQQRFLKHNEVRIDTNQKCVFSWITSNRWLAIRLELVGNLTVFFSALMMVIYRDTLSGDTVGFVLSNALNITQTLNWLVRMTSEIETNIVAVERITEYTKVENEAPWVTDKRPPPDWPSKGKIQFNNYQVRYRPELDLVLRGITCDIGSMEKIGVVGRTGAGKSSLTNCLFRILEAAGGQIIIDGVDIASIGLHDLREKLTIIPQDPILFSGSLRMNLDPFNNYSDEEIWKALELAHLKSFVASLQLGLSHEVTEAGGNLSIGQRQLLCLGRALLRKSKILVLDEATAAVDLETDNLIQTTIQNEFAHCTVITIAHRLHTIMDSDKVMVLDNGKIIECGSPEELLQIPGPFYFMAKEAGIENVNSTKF
Bile salt export pump, sequence (O95342 whole entry): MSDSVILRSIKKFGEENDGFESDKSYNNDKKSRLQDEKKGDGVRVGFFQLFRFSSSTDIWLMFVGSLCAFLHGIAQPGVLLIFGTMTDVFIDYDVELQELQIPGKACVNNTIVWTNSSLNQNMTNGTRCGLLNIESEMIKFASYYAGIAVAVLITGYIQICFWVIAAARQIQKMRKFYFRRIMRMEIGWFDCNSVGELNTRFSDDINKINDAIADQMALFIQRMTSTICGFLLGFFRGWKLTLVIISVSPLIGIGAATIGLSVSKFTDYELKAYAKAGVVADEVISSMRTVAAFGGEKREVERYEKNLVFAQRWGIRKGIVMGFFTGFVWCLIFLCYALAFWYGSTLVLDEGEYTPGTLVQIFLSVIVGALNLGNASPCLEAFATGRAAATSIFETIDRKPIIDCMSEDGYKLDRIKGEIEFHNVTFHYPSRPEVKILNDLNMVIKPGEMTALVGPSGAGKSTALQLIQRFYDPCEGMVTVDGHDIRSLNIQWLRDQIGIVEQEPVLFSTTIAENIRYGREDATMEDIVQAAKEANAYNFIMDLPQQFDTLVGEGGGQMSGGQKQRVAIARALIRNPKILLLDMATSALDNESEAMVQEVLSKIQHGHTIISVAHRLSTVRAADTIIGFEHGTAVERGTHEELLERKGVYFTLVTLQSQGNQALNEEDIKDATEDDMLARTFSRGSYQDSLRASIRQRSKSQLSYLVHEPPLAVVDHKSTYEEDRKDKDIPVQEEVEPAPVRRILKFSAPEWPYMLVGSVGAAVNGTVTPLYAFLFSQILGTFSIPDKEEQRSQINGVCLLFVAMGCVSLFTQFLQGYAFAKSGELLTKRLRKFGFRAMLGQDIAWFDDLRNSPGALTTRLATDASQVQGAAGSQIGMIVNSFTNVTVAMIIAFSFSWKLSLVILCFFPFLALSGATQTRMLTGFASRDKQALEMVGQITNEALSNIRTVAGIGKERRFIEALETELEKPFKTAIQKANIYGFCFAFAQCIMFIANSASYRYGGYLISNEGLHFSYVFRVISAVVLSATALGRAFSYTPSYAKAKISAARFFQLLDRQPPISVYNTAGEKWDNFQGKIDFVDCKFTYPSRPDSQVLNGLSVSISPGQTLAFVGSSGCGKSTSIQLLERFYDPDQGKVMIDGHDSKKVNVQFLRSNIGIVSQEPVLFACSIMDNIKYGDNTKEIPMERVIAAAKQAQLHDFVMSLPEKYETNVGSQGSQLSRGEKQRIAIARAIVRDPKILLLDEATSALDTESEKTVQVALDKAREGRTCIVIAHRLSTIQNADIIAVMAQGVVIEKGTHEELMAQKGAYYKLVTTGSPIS
ATP-binding cassette sub-family C member 3, sequence (O15438 whole entry): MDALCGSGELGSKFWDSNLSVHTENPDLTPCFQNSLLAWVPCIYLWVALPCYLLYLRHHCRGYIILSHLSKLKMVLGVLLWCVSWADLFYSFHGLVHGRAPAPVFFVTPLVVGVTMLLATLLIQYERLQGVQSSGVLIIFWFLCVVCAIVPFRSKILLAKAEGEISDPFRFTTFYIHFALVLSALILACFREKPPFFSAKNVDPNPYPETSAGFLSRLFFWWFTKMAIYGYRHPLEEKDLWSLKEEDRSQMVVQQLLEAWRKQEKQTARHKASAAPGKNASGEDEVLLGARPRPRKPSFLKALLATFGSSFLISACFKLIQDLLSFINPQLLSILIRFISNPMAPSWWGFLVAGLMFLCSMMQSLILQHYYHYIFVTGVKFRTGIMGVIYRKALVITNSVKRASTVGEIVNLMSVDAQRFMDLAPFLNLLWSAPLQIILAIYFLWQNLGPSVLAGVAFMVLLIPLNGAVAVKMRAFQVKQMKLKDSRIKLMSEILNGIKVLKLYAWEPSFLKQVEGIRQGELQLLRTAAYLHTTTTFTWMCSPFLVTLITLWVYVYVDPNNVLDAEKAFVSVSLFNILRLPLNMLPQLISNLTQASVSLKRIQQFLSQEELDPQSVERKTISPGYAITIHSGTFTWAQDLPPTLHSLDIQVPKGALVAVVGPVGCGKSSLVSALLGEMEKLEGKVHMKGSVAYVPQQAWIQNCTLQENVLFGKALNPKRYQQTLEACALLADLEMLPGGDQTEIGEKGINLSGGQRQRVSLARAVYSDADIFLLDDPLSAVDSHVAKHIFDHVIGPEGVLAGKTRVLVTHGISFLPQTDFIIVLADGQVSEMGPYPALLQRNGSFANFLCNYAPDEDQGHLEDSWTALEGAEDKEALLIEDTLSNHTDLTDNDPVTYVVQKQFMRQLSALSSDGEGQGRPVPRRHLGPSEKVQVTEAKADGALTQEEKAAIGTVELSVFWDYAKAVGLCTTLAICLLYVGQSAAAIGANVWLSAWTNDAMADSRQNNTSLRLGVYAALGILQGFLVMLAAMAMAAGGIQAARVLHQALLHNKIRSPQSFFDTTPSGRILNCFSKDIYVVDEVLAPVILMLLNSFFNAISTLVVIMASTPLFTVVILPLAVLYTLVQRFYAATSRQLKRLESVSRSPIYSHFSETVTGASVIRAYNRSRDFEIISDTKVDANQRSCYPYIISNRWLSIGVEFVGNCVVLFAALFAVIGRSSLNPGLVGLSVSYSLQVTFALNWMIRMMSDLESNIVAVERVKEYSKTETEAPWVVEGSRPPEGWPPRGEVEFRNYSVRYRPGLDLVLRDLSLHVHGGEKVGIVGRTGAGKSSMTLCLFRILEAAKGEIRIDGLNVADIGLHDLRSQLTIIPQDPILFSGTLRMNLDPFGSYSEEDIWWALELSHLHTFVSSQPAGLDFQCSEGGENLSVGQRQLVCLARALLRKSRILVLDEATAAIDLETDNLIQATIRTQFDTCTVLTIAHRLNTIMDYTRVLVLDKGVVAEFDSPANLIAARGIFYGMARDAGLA

Broadly, the IC50 is the concentration that inhibits the measured activity by half. With `CN(CCOc1ccc(NS(C)(=O)=O)cc1)CCc1ccc(NS(C)(=O)=O)cc1` [DOFETILIDE], the half-inhibitory concentration (IC50) (at Bile salt export pump; in experiment [1]; in experiment [2]; in experiment [3]) was above 133 µM each time.

For the molecule `O=c1[nH]c2ccccc2n1CCCN1CCC(n2c(=O)[nH]c3cc(Cl)ccc32)CC1` [DOMPERIDONE], the IC50 (on Bile salt export pump; in experiment [1]; in experiment [2]; in experiment [3]) was above 133 µM throughout.

For `COc1cccc2c1C(=O)c1c(O)c3c(c(O)c1C2=O)C[C@@](O)(C(=O)CO)C[C@@H]3O[C@H]1C[C@H](N)[C@H](O)[C@H](C)O1` [DOXORUBICIN], the IC50 at Bile salt export pump was above 133 µM; in experiment [1], above 133 µM; in experiment [2], above 133 µM; in experiment [3], 19 µM.

Turning to `C[C@H]1c2cccc(O)c2C(=O)C2=C(O)[C@]3(O)C(=O)C(C(N)=O)=C(O)[C@@H](N(C)C)[C@@H]3[C@@H](O)[C@@H]21` [DOXYCYCLINE HYDROCHLORIDE], the IC50 (on Bile salt export pump; in experiment [1]; in experiment [2]; in experiment [3]) was above 133 µM throughout.

Take `CNCC[C@H](Oc1cccc2ccccc12)c1cccs1` [DULOXETINE HYDROCHLORIDE]: the IC50 (on Bile salt export pump; in experiment [1]; in experiment [2]; in experiment [3]) was above 133 µM each time.

As to `CC(C)(C)c1ccc(C(=O)CCCN2CCC(OC(c3ccccc3)c3ccccc3)CC2)cc1` [EBASTINE], the half-inhibitory concentration (IC50) (on Bile salt export pump; in experiment [1]; in experiment [2]; in experiment [3]) was above 133 µM in each case.

Turning to `O=C1Nc2ccc(Cl)cc2[C@@](C#CC2CC2)(C(F)(F)F)O1` [EFAVIRENZ], the half-inhibitory concentration (IC50) (at Bile salt export pump; in experiment [1]; in experiment [2]; in experiment [3]) was above 133 µM throughout.

`NCCCC(N)(C(=O)O)C(F)F` (stereo unspecified) [EFLORNITHINE HYDROCHLORIDE]: the IC50 (at Bile salt export pump; in experiment [1]; in experiment [2]; in experiment [3]) was above 133 µM throughout.

With `CC[C@H]1CN2CCc3cc(OC)c(OC)cc3[C@@H]2C[C@@H]1C[C@H]1NCCc2cc(OC)c(OC)cc21` [EMETINE], the 50% inhibitory concentration (IC50) (on Bile salt export pump; in experiment [1]; in experiment [2]; in experiment [3]) was above 133 µM each time.

Take `Nc1nc(=O)n([C@@H]2CS[C@H](CO)O2)cc1F` [EMTRICITABINE]: the half-maximal inhibitory concentration (IC50) (on Bile salt export pump; in experiment [1]; in experiment [2]; in experiment [3]) was above 133 µM throughout.

Regarding `CCOC(=O)[C@H](CCc1ccccc1)N[C@@H](C)C(=O)N1CCC[C@H]1C(=O)O` [ENALAPRIL MALEATE], the IC50 (on Bile salt export pump; in experiment [1]; in experiment [2]; in experiment [3]) was above 133 µM throughout.

`CCn1cc(C(=O)O)c(=O)c2cc(F)c(N3CCNCC3)nc21` [ENOXACIN]: the IC50 (at Bile salt export pump; in experiment [1]; in experiment [2]; in experiment [3]) was above 133 µM each time.

Turning to `CSc1ccc(C(=O)c2[nH]c(=O)[nH]c2C)cc1` [ENOXIMONE], the IC50 (on Bile salt export pump; in experiment [1]; in experiment [2]; in experiment [3]) was above 133 µM in each case.

With `COc1cccc2c1C(=O)c1c(O)c3c(c(O)c1C2=O)C[C@@](O)(C(=O)CO)C[C@@H]3O[C@H]1C[C@H](N)[C@@H](O)[C@H](C)O1` [EPIRUBICIN HYDROCHLORIDE], the IC50 (at Bile salt export pump; in experiment [1]; in experiment [2]; in experiment [3]) was above 133 µM each time.

Consider `COC(=O)[C@@H]1CC2=CC(=O)CC[C@]2(C)[C@@]23O[C@@H]2C[C@@]2(C)[C@@H](CC[C@@]24CCC(=O)O4)[C@H]13` [EPLERENONE], for which the IC50 (at Bile salt export pump; in experiment [1]; in experiment [2]; in experiment [3]) was above 133 µM throughout.

Consider `CCCCc1ncc(/C=C(\Cc2cccs2)C(=O)O)n1Cc1ccc(C(=O)O)cc1` [EPROSARTAN], for which the half-inhibitory concentration (IC50) at Bile salt export pump is above 133 µM; in experiment [1], 57.9 µM; in experiment [2], 6.65 µM; in experiment [3], above 133 µM.

On to `C=C1CC[C@H](O)C/C1=C/C=C1\CCC[C@]2(C)[C@@H]([C@H](C)/C=C/[C@H](C)C(C)C)CC[C@@H]12` [ERGOCALCIFEROL], for which the concentration for half-maximal inhibition (IC50) on Bile salt export pump was 75.8 µM; in experiment [1], above 133 µM; in experiment [2], above 133 µM; in experiment [3] it was above 133 µM.

As to `CN(C)CCC[C@@]1(c2ccc(F)cc2)OCc2cc(C#N)ccc21` [ESCITALOPRAM OXALATE], the IC50 (on Bile salt export pump; in experiment [1]; in experiment [2]; in experiment [3]) was above 133 µM throughout.

As for `CN1CCN(C(=O)O[C@H]2c3nccnc3C(=O)N2c2ccc(Cl)cn2)CC1` [ESZOPICLONE], the IC50 (on Bile salt export pump; in experiment [1]; in experiment [2]; in experiment [3]) was above 133 µM in each case.

For the molecule `C#C[C@]1(O)CC[C@H]2[C@@H]3CCc4cc(O)ccc4[C@H]3CC[C@@]21C` [ETHINYL ESTRADIOL], the IC50 on Bile salt export pump is 14 µM; in experiment [1], above 133 µM; in experiment [2] it was above 133 µM; in experiment [3] it was above 133 µM.

Turning to `CCC1(C)CC(=O)NC1=O` (stereo unspecified) [ETHOSUXIMIDE], the IC50 (on Bile salt export pump; in experiment [1]; in experiment [2]; in experiment [3]) was above 133 µM each time.

As to `CC(O)(P(=O)(O)O)P(=O)(O)O` [ETIDRONATE DISODIUM], the IC50 (on Bile salt export pump; in experiment [1]; in experiment [2]; in experiment [3]) was above 133 µM throughout.

Take `COc1cc([C@@H]2c3cc4c(cc3[C@@H](O[C@@H]3O[C@@H]5CO[C@@H](C)O[C@H]5[C@H](O)[C@H]3O)[C@H]3COC(=O)[C@H]23)OCO4)cc(OC)c1OP(=O)(O)O` [ETOPOSIDE PHOSPHATE]: the IC50 (at Bile salt export pump; in experiment [1]; in experiment [2]; in experiment [3]) was above 133 µM each time.

In the case of `Cc1ccc(-c2ncc(Cl)cc2-c2ccc(S(C)(=O)=O)cc2)cn1` [ETORICOXIB], the IC50 at Bile salt export pump is 53.2 µM; in experiment [1] it was above 133 µM; in experiment [2] it was above 133 µM; in experiment [3] it was 53 µM.

Turning to `CCOC(=O)/C=C(C)/C=C/C=C(C)/C=C/c1c(C)cc(OC)c(C)c1C` [ETRETINATE], the IC50 (on Bile salt export pump; in experiment [1]; in experiment [2]; in experiment [3]) was above 133 µM each time.

Consider `C=C1C[C@@H]2[C@H](CC[C@]3(C)C(=O)CC[C@@H]23)[C@@]2(C)C=CC(=O)C=C12` [EXEMESTANE], for which the 50% inhibitory concentration (IC50) was 90 µM at Bile salt export pump, above 133 µM in experiment [1], above 133 µM in experiment [2] and above 133 µM in experiment [3].

In the case of `CC(=O)OCC(CCn1cnc2cnc(N)nc21)COC(C)=O` [FAMCICLOVIR], the 50% inhibitory concentration (IC50) (on Bile salt export pump; in experiment [1]; in experiment [2]; in experiment [3]) was above 133 µM in each case.

In the case of `NC(N)=Nc1nc(CSCCC(N)=NS(N)(=O)=O)cs1` [FAMOTIDINE], the IC50 (on Bile salt export pump; in experiment [1]; in experiment [2]; in experiment [3]) was above 133 µM in each case.

Consider `O=C(O)Cc1ccc(-c2ccccc2)cc1` [FELBINAC], for which the concentration for half-maximal inhibition (IC50) at Bile salt export pump is above 133 µM; in experiment [1], above 133 µM; in experiment [2], above 133 µM; in experiment [3] it was 8.2 µM.

Source of the values: ChEMBL document CHEMBL4028801, “A multifactorial approach to hepatobiliary transporter assessment enables improved therapeutic compound development” (Toxicol Sci, 2013).
